Assay results as given in ChEMBL document CHEMBL1909046, “DrugMatrix in vitro pharmacology data”.

Assays:
[1] = biological target: Tyrosine-protein kinase Lck (Homo sapiens, UniProt P06239); test: DRUGMATRIX: Protein Tyrosine Kinase, LCK enzyme inhibition (substrate: Poly(Glu:Tyr)); assay type: cell-based, Insect cells; conditions: insect cells; Not Active = under 50% inhibition at 10 µM
[2] = biological target: 5-hydroxytryptamine receptor 6 (Homo sapiens, UniProt P50406); assay type: cell membranes, HeLa, Membrane; note: in other assays of this panel Not Active means under 50% inhibition at 10 µM
Glucocorticoid receptor = biological target: T1, Glucocorticoid receptor (Homo sapiens, UniProt P04150); conditions: hela s3; note: in other assays of this panel Not Active means under 50% inhibition at 10 µM
T1 sequence (P04150 whole entry): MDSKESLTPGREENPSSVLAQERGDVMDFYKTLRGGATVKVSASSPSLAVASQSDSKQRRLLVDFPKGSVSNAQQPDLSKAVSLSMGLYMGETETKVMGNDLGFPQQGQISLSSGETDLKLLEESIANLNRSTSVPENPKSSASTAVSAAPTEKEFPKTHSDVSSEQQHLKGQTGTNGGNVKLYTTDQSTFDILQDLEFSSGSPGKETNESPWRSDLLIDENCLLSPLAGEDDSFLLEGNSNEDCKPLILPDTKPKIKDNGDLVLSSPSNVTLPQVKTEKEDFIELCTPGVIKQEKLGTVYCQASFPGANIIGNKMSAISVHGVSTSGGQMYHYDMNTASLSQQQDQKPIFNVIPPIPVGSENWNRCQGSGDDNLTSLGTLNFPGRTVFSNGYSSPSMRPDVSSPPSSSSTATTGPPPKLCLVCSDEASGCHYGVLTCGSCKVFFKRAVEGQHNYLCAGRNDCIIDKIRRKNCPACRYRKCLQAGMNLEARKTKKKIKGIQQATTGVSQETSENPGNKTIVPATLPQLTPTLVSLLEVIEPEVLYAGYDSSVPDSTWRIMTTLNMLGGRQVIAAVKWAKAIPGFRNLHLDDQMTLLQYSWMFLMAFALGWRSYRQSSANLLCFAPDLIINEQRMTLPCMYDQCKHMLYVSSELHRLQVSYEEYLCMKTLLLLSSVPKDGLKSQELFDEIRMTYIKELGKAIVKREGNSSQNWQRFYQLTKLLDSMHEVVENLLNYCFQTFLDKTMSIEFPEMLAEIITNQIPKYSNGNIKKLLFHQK

[3] = biological target: T2, Type-2 angiotensin II receptor (Homo sapiens, UniProt P50052); assay type: cell-based; conditions: cho-k1; note: in other assays of this panel Not Active means under 50% inhibition at 10 µM
T2 sequence (P50052 whole entry): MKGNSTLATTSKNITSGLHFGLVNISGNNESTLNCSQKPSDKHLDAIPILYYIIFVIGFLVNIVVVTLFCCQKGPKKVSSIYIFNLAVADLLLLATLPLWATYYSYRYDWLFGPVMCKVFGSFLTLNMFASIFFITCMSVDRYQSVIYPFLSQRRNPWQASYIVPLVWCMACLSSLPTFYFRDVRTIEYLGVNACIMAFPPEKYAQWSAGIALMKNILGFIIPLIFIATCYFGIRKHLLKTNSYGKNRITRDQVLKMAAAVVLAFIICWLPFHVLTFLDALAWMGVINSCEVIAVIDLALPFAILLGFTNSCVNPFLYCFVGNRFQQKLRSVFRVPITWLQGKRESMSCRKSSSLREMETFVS

[4] = biological target: T3, Neuropeptide Y receptor type 1 (Homo sapiens, UniProt P25929); assay type: cell membranes, Membrane; conditions: sk-n-mc; note: in other assays of this panel Not Active means under 50% inhibition at 10 µM
T3 sequence (P25929 whole entry): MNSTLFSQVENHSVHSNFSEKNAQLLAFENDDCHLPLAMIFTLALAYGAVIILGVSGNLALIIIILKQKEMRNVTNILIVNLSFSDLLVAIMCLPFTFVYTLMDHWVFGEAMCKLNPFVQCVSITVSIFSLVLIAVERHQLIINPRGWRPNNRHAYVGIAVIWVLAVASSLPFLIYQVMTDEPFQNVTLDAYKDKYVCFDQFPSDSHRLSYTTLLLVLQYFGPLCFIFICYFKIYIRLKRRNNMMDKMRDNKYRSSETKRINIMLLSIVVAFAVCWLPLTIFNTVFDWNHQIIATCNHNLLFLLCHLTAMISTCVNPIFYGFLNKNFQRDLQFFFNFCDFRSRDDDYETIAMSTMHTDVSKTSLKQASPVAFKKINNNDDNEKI

Endothelin-1 receptor = biological target: T4, Endothelin-1 receptor (Homo sapiens, UniProt P25101); assay type: cell membranes, CHO-K1, Membrane; conditions: cho-k1; note: in other assays of this panel Not Active means under 50% inhibition at 10 µM
T4 sequence (P25101 whole entry): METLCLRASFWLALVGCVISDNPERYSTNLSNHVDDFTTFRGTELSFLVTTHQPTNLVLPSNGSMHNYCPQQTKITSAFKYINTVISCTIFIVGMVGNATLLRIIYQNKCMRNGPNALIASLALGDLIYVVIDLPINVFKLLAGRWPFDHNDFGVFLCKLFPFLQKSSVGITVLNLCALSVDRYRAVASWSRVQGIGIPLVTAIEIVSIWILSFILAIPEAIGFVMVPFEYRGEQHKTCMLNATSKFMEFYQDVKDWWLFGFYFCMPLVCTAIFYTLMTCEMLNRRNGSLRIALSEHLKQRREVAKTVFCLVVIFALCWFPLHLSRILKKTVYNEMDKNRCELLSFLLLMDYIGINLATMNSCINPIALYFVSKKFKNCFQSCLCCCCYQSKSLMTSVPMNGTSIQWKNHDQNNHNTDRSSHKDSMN

[5] = DRUGMATRIX: GABAA, Flunitrazepam, Central radioligand binding (ligand: [3H] Flunitrazepam); assay type: cell membranes, Rattus norvegicus, Wistar, Brain, Membrane; conditions: Not Active = under 50% inhibition at 10 µM

Chain of 5-hydroxytryptamine receptor 6 (P50406 whole entry): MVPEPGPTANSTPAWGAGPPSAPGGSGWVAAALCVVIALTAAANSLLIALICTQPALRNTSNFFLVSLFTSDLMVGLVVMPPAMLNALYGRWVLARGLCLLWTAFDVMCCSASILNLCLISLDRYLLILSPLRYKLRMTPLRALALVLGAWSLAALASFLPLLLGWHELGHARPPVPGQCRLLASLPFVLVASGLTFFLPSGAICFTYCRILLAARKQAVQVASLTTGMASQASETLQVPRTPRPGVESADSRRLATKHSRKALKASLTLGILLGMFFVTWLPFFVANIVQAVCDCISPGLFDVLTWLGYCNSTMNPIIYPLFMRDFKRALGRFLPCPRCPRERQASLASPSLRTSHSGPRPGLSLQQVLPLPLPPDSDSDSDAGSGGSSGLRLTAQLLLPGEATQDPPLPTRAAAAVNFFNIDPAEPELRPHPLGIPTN
Chain of Tyrosine-protein kinase Lck (P06239 whole entry): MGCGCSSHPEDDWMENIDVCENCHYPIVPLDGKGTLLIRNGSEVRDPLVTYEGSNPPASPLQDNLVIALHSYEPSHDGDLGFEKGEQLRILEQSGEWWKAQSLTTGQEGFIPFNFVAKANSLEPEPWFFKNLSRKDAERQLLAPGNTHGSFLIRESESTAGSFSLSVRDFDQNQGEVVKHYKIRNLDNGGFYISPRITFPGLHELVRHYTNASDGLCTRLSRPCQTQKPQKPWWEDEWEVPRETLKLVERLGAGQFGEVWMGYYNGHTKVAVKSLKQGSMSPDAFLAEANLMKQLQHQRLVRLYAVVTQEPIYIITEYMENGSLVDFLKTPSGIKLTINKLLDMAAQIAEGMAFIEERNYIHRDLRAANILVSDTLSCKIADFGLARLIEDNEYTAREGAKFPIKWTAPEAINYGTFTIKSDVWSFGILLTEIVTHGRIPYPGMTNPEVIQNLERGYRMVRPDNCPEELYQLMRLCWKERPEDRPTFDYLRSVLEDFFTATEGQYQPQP

Compound | IC50 [1] | IC50 ([2]; hela) | IC50 (Glucocorticoid receptor) | IC50 [3] | IC50 [4] | IC50 (Endothelin-1 receptor) | IC50 [5] | Ki [5] | IC50 ([2]; read-out: IC50) [µM] | Ki ([2]; read-out: Ki) [µM]
N[C@@H](Cc1ccc(F)cc1)C(=O)O | Not Active | Not Active | Not Active | Not Active | Not Active | Not Active | Not Active | Not Active |  | 
O=C(O)Cc1ccc(-c2ccccc2)cc1 [FELBINAC] | Not Active | Not Active | Not Active | Not Active | Not Active | Not Active | Not Active | Not Active |  | 
NC[C@H]1O[C@H](O[C@H]2[C@H](O)[C@@H](O[C@H]3O[C@H](CO)[C@@H](O)[C@H](N)[C@H]3O)[C@H](N)C[C@@H]2N)[C@H](O)[C@@H](O)[C@@H]1O [KANAMYCIN] | Not Active | Not Active | Not Active | Not Active | Not Active | Not Active | Not Active | Not Active |  | 
Nc1nc(N)nc(NC2CC2)n1 [CYROMAZINE] | Not Active | Not Active | Not Active | Not Active | Not Active | Not Active | Not Active | Not Active |  | 
CCN[C@@H](C)Cc1cccc(C(F)(F)F)c1 [DEXFENFLURAMINE] | Not Active | Not Active | Not Active | Not Active | Not Active | Not Active | Not Active | Not Active |  | 
C[C@]12C/C(=C/O)C(=O)C[C@@H]1CC[C@@H]1[C@@H]2CC[C@@]2(C)[C@H]1CC[C@]2(C)O [OXYMETHOLONE] | Not Active | Not Active | Not Active | Not Active | Not Active | Not Active | Not Active | Not Active |  | 
C=C(CC)C(=O)c1ccc(OCC(=O)O)c(Cl)c1Cl [ETHACRYNIC ACID] | Not Active | Not Active | Not Active | Not Active | Not Active | Not Active | Not Active | Not Active |  | 
CCOC(=O)[C@H](CCc1ccccc1)N[C@@H](C)C(=O)N1Cc2ccccc2C[C@H]1C(=O)O | Not Active | Not Active | Not Active | Not Active | Not Active | Not Active | Not Active | Not Active |  | 
CCc1oc2ccccc2c1C(=O)c1cc(Br)c(O)c(Br)c1 [BENZBROMARONE] | Not Active | Not Active | Not Active | Not Active | Not Active | Not Active | Not Active | Not Active |  | 
CC[C@H]1OC(=O)[C@H](C)[C@@H](O[C@H]2C[C@@](C)(OC)[C@@H](O)[C@H](C)O2)[C@H](C)[C@@H](O[C@@H]2O[C@H](C)C[C@H](N(C)C)[C@H]2O)[C@](C)(OC)C[C@@H](C)C(=O)[C@H](C)[C@@H](O)[C@]1(C)O [CLARITHROMYCIN] | Not Active | Not Active | Not Active | Not Active | Not Active | Not Active | Not Active | Not Active |  | 
CC(C)C[C@H]1C(=O)N2CCC[C@H]2[C@]2(O)O[C@](NC(=O)[C@@H]3C=C4c5cccc6[nH]c(Br)c(c56)C[C@H]4N(C)C3)(C(C)C)C(=O)N12 [BROMOCRIPTINE] | Not Active |  | Not Active | Not Active | Not Active | Not Active | Not Active | Not Active | 0.022 | 0.01
CC(C)(Oc1ccc(C2CC2(Cl)Cl)cc1)C(=O)O (configuration not stated) [CIPROFIBRATE] | Not Active | Not Active | Not Active | Not Active | Not Active | Not Active | Not Active | Not Active |  | 
Cc1cnc(C(=O)NCCc2ccc(S(=O)(=O)NC(=O)NC3CCCCC3)cc2)cn1 [GLIPIZIDE] | Not Active | Not Active | Not Active | Not Active | Not Active | Not Active | Not Active | Not Active |  | 
CC(C)(C)c1ccc(S(=O)(=O)/C=C/C#N)cc1 [BAY-11-7085] | Not Active | Not Active | Not Active | Not Active | Not Active | Not Active | Not Active | Not Active |  | 
Cc1cccc(Nc2ccccc2C(=O)O)c1C [MEFENAMIC ACID] | Not Active | Not Active | Not Active | Not Active | Not Active | Not Active | Not Active | Not Active |  | 
CC[C@]1(O)CC[C@H]2[C@@H]3CCC4=CCCC[C@@H]4[C@H]3CC[C@@]21C | Not Active | Not Active | Not Active | Not Active | Not Active | Not Active | Not Active | Not Active |  | 
COc1cc(CNC(=O)CCCC/C=C/C(C)C)ccc1O [CAPSAICIN] | Not Active | Not Active | Not Active | Not Active | Not Active | Not Active | Not Active | Not Active |  | 
CN(C(=O)CCCOc1ccc2[nH]c(=O)ccc2c1)C1CCCCC1 [CILOSTAMIDE] | Not Active | Not Active | Not Active | Not Active | Not Active | Not Active | Not Active | Not Active |  | 
CC(=O)OCC(CCn1cnc2cnc(N)nc21)COC(C)=O [FAMCICLOVIR] | Not Active | Not Active | Not Active | Not Active | Not Active | Not Active | Not Active | Not Active |  | 
OCCN1CCN(CCCN2c3ccccc3Sc3ccc(Cl)cc32)CC1 [PERPHENAZINE] | Not Active | Not Active | Not Active | Not Active | Not Active | Not Active | Not Active | Not Active |  | 
C[C@H]([C@](O)(Cn1cncn1)c1ccc(F)cc1F)S(C)(=O)=O [GENACONAZOLE] | Not Active | Not Active | Not Active | Not Active | Not Active | Not Active | Not Active | Not Active |  | 
Clc1cc2c(cc1Cl)Oc1cc(Cl)c(Cl)cc1O2 [2,3,7,8-TETRACHLORODIBENZO-P-DIOXIN] | Not Active | Not Active | Not Active | Not Active | Not Active | Not Active | Not Active | Not Active |  | 
